{"source": "patent US20240101535A1", "about": "“DIHYDROISOQUINOLINONE DERIVATIVE AND APPLICATION THEREOF” (ETERN BIOPHARMA (SHANGHAI) CO., LTD., priority 2020, published 2024)", "key": {"[1]": {"biological_target": "WDR5 protein (22-334aa) with MLL1 polypeptide (3672-3773aa) (Homo sapiens, UniProt P61964)", "experiment": "WDR5-MLL PPI inhibitory activity test (HTRF)", "format": "binding", "settings": "His-tagged WDR5 and biotin-tagged MLL1 polypeptide", "text": "Test Example 1: WDR5-MLL PPI Inhibitory Activity Test\nEffect of the compounds on WDR5 (WD Repeat Domain 5) and MLL1 (mixed-lineage leukemia 1) peptides at molecular level.\nThe effect of the compound on the interaction of WDR5 protein (22-334aa) with MLL1 polypeptide (3672-3773aa) was detected by HTRF (Homogeneous Time-Resolved Fluorescence) technology. When the N-terminal His-tagged WDR5 recognized by the Anti-6His-Eu cryptate donor interacts with the biotin-tagged MLL1 polypeptide recognized by the streptavidin-APC receptor, the donor and acceptor are pulled close enough to produce fluorescence resonance energy transfer (FRET). […] Therefore, the decrease in FRET signal can reflect the compound's inhibition on the interaction of WDR5 with MLL1 polypeptide.\nThe compound to be tested was diluted 3-fold with DMSO. […] Then the compound was diluted with reaction buffer (25 mM HEPES pH=7.5, 100 mM NaCl, 0.05% Tween 20) to control the final concentration of DMSO at 0.5%. In a 384-well plate, 1 μL of compound and 3 μL of 42 nM WDR5 protein were added, centrifuged at 1000 rpm for 1 min, incubated at room temperature for 60 min, followed by adding 3 μL of 333 nM MLL1 polypeptide with incubation at room temperature for 10 min, and followed by adding 3 μL of a mixed liquid of Anti-6His-Eu cryptate and streptavidin-APC with centrifugation at 1000 rpm for 1 mi and incubation at room temperature protected from light for 60 min, using a multifunction microplate reader (EnVision®2105) to read the signal. The following controls were set up per plate: control group (1 μL with 5% DMSO reaction buffer, 3 μL of 42 nM WDR5, 3 μL of MLL1 polypeptide, 3 μL of Anti-6His-Eu cryptate and streptavidin-APC). Blank group (1 μL reaction buffer with 5% DMSO, 3 μL reaction buffer, 3 μL MLL1 polypeptide, 3 μL Anti-6His-Eu cryptate and streptavidin-APC). The test data was calculated according to the signal ratio of two beams of fluorescence at different wavelengths: (665 nm signal/620 nm signal)*10000. […] The IC50 value was calculated using XLfit software."}, "MV4-11 cells": {"system": "MV4-11 cells", "experiment": "MV4-11 cell proliferation inhibition experiment (CellTiter-Glo)", "format": "cell-based", "settings": "Homo sapiens, 144 h, 6 days, read-out: cell proliferation inhibitory activity", "experimental": "Test Example 2: MV4-11 Cell (ATCC: CRL-9591) Proliferation Inhibition Experiment\nATP in living cells was quantitatively detected by CellTiter-Glo (Promega-G7573) Luminescence Cell Viability Assay Kit to determine the effect of the compounds to be tested on cell proliferation. • Step 1: MV4-11 cells were seeded in 96-well plates (Greiner-655098) at a density of 1,500 cells per well with a volume of 140 μL per well; Cell culture medium components included RPM11640 (Gibco-A10491-01)+10% FBS (Gibco-10099-141C)+1% Penicillin-Streptomycin (5,000 U/mL, Gibco-15070-063). • Step 2: On the day of cell seeding, the cells were treated with the compound to be tested. The compound to be tested was diluted with a 3-fold gradient, and a total of 9 concentration gradients were set. DMSO (Sigma, D2650) with 0.5% final concentration or a DMSO solution containing the compound to be tested was added per well with 2 or 3 replicate wells at each concentration point. The plates were incubated at 37° C. in a 5% CO2 incubator (Thermo Scientific Steri-Cycle 371) for 6 days. • Step 3: The cell viability in the control and treatment groups was detected with CellTiter-Glo Luminescent Cell Viability Assay Kit. 50 μL of CellTiter-Glo was added per well, mixed well, and incubated for 15 min at room temperature protected from light. According to the kit instructions, the chemiluminescence signal was read using a multifunctional microplate reader (EnVision, PerkinElmer).\nThe inhibition percentage (%) of the compound at each concentration point was calculated by the following formula:\nInhibition Percentage (%)=(1−signal value of the group treated with the compound/signal value of the group treated with DMSO)*100.\nThe value of cell proliferation semi-inhibitory concentration IC50 was calculated using GraphPad Prism software, and the results are shown in Table 2."}}}
{"smiles": "CCOc1cc(CN2CC3(CC3)c3c(CN4CCN(C)CC4)cc(Cn4ccnc4NC)cc3C2=O)nn1C", "note": "[Compound 66, 2′-((5-ethoxy-1-methyl-1H-pyrazole-3-yl)methyl)-7′-((2-(methylamino)-1H-imidazol-1-yl)methyl)-5′-((4-methylpiperazin-1-yl)methyl)-2′,3′-dihydro-1′H-spiro[cyclopropan-1,4′-isoquinoline]-1′-one]", "values": [{"measurement": "IC50", "setting": "[1]", "result": "< 20", "unit": "nM"}, {"measurement": "IC50", "setting": "MV4-11 cells", "result": "< 50", "unit": "nM"}]}
{"smiles": "CCOc1cc([C@H](C)N2CC3(CC3)c3c(CN4CC(F)(F)C4)cc(Cn4ccnc4NC)cc3C2=O)ncc1C#N", "note": "[Compound 67, (S)-6-(1-(5′-((3,3-difluoroazetidinyl-1-yl)methyl)-7′-((2-(methylamino)-1H-imidazol-1-yl)methyl)-1′-one-1′H-spiro[cyclopropan-1,4′-isoquinoline]-2′(3′H)-yl)ethyl)-4-ethoxynicotinonitrile]", "values": [{"measurement": "IC50", "setting": "[1]", "result": "< 20", "unit": "nM"}, {"measurement": "IC50", "setting": "MV4-11 cells", "result": "< 50", "unit": "nM"}]}
{"smiles": "CCOc1cc([C@H](C)N2CC3(CC3)c3c(CN4CC(F)(F)C4)cc(Cn4ccnc4NC)cc3C2=O)ncc1F", "note": "[Compound 68, (S)-5′-((3,3-difluoroazetidinyl-1-yl)methyl)-2′-(1-(4-ethoxy-5-fluoropyridine-2-yl)ethyl)-7′-((2-(methylamino)-1H-imidazol-1-yl)methyl)-2′,3′-dihydro-1′H-spiro[cyclopropan-1,4′-isoquinoline]-1′-one]", "values": [{"measurement": "IC50", "setting": "[1]", "result": "< 20", "unit": "nM"}, {"measurement": "IC50", "setting": "MV4-11 cells", "result": "50 to 200", "unit": "nM"}]}
{"smiles": "CCOc1cc([C@H](C)N2CC3(CC3)c3c(CN4C5CC4CN(C)C5)cc(Cn4ccnc4NC)cc3C2=O)ncc1F", "note": "[Compound 70, 2′-((S)-1-(4-ethoxy-5-fluoropyridine-2-yl)ethyl)-5′-((3-methyl-3,6-diazadicyclo[3.1.1]heptan-6-yl)methyl)-7′-((2-(methylamino)-1H-imidazol-1-yl)methyl)-2′,3′-dihydro-1′H-spiro[cyclopropan-1,4′-isoquinoline]-1′-one]", "values": [{"measurement": "IC50", "setting": "[1]", "result": "< 20", "unit": "nM"}, {"measurement": "IC50", "setting": "MV4-11 cells", "result": "< 50", "unit": "nM"}]}
{"smiles": "CCOc1cc(CN2CC3(CC3)c3c(CN(C)C)cc(Cn4ccnc4NC)cc3C2=O)ncc1C#N", "note": "[Compound 71, 6-((5′-((dimethylamino)methyl)-7′-((2-(methylamino)-1H-imidazol-1-yl)methyl)-1′-one-1′H-spiro[cyclopropan-1,4′-isoquinoline]-2′(3′H)-yl)methyl)-4-ethoxynicotinonitrile]", "values": [{"measurement": "IC50", "setting": "[1]", "result": "< 20", "unit": "nM"}, {"measurement": "IC50", "setting": "MV4-11 cells", "result": "< 50", "unit": "nM"}]}
{"smiles": "CCOc1cc([C@H](C)N2CC3(CCC3)c3c(CN4CCOCC4)cc(Cn4ccnc4NC)cc3C2=O)ncc1C#N", "note": "[Compound 72, (S)-4-ethoxy-6-(1-(7′-((2-(methylamino)-1H-imidazol-1-yl)methyl)-5′-(morpholinylmethyl)-1′-one-1′H-spiro[cyclobutyl-1,4′-isoquinoline]-2′(3′H)-yl)ethyl)nicotinonitrile]", "values": [{"measurement": "IC50", "setting": "[1]", "result": "< 20", "unit": "nM"}, {"measurement": "IC50", "setting": "MV4-11 cells", "result": "< 50", "unit": "nM"}]}
{"smiles": "CCOc1cc([C@H](C)N2CC3(CCC3)c3c(CN4CCN(C)CC4)cc(Cn4ccnc4NC)cc3C2=O)ncc1C#N", "note": "[Compound 73, (S)-4-ethoxy-6-(1-(7′-((2-(methylamino)-1H-imidazol-1-yl)methyl)-5′-((4-methylpiperazin-1-yl)methyl)-1′-one-1′H-spiro[cyclobutan-1,4′-isoquinoline]-2′(3′H)-yl)ethyl)nicotinonitrile]", "values": [{"measurement": "IC50", "setting": "[1]", "result": "< 20", "unit": "nM"}, {"measurement": "IC50", "setting": "MV4-11 cells", "result": "< 50", "unit": "nM"}]}
{"smiles": "CCOc1cc(CN2CC3(CCC3)c3c(CN(C)C)cc(Cn4ccnc4NC)cc3C2=O)ncc1C#N", "note": "[Compound 77, 6-((5′-((dimethylamino)methyl)-7′-((2-(methylamino)-1H-imidazol-1-yl)methyl)-1′-one-1′H-spiro[cyclobutan-1,4′-isoquinoline]-2′(3′H)-yl)methyl)-4-ethoxynicotinonitrile]", "values": [{"measurement": "IC50", "setting": "[1]", "result": "< 20", "unit": "nM"}, {"measurement": "IC50", "setting": "MV4-11 cells", "result": "< 50", "unit": "nM"}]}
{"smiles": "CCOc1cc([C@H](C)N2CC3(CCC3)c3c(CN4CCN(S(C)(=O)=O)CC4)cc(Cn4ccnc4NC)cc3C2=O)ncc1F", "note": "[Compound 78, (S)-2′-(1-(4-ethoxy-5-fluoropyridine-2-yl)ethyl)-7′-((2-(methylamino)-1H-imidazol-1-yl)methyl)-5′-((4-(methylsulfonyl)piperazin-1-yl)methyl)-2′,3′-dihydro-1′H-spiro[cyclobutan-1,4′-isoquinoline]-1′-one]", "values": [{"measurement": "IC50", "setting": "[1]", "result": "< 20", "unit": "nM"}, {"measurement": "IC50", "setting": "MV4-11 cells", "result": "< 50", "unit": "nM"}]}
{"smiles": "CCOc1cc([C@H](C)N2CC3(CCC3)c3c(CN4CC(F)(F)C4)cc(Cn4ccnc4NC)cc3C2=O)ncc1C#N", "note": "[Compound 79, (S)-6-(1-(5′-((3,3-difluoroazetidinyl-1-yl)methyl)-7′-((2-(methylamino)-1H-imidazol-1-yl)methyl)-1′-one-1′H-spiro[cyclobutan-1,4′-isoquinoline]-2′(3′H)-yl)ethyl)-4-ethoxynicotinonitrile]", "values": [{"measurement": "IC50", "setting": "[1]", "result": "< 20", "unit": "nM"}, {"measurement": "IC50", "setting": "MV4-11 cells", "result": "< 50", "unit": "nM"}]}
{"smiles": "CCOc1cc([C@H](C)N2CC3(CCC3)c3c(CN4CCN(S(C)(=O)=O)CC4)cc(Cn4ccnc4NC)cc3C2=O)ncc1C#N", "note": "[Compound 80, (S)-4-ethoxy-6-(1-(7′-((2-(methylamino)-1H-imidazol-1-yl)methyl)-5′-((4-(methylsulfonyl)piperazin-1-yl)methyl)-1′-one-1′H-spiro[cyclobutan-1,4′-isoquinoline]-2′(3′H)-yl)ethyl)nicotinonitrile]", "values": [{"measurement": "IC50", "setting": "[1]", "result": "< 20", "unit": "nM"}, {"measurement": "IC50", "setting": "MV4-11 cells", "result": "< 50", "unit": "nM"}]}
{"smiles": "CCOc1cc([C@H](C)N2CC3(CCC3)c3c(CN4CCC(OC)CC4)cc(Cn4ccnc4NC)cc3C2=O)ncc1C#N", "note": "[Compound 81]", "values": [{"measurement": "IC50", "setting": "[1]", "result": "< 20", "unit": "nM"}, {"measurement": "IC50", "setting": "MV4-11 cells", "result": "< 50", "unit": "nM"}]}
{"smiles": "CCOc1cc(CN2CC3(CCC3)c3c(CN4CC(F)(F)C4)cc(Cn4ccnc4NC)cc3C2=O)ncc1C#N", "note": "[Compound 82, 6-((5′-((3,3-difluoroazetidinyl-1-yl)methyl)-7′-((2-(methylamino)-1H-imidazol-1-yl)methyl)-1′-one-1′H-spiro[cyclobutan-1,4′-isoquinoline]-2′(3′H)-yl)methyl)-4-ethoxynicotinonitrile]", "values": [{"measurement": "IC50", "setting": "[1]", "result": "< 20", "unit": "nM"}, {"measurement": "IC50", "setting": "MV4-11 cells", "result": "< 50", "unit": "nM"}]}
{"smiles": "CCOc1cc([C@H](C)N2CC3(CCC3)c3c(CN4CCN(C)CC4)cc(Cn4ccnc4NC)cc3C2=O)ncc1F", "note": "[Compound 83, (S)-2′-(1-(4-ethoxy-5-fluoropyridine-2-yl)ethyl)-7′-((2-(methylamino)-1H-imidazol-1-yl)methyl)-5′-((4-methylpiperazin-1-yl)methyl)-2′,3′-dihydro-1′H-spiro[cyclobutan-1,4′-isoquinoline]-1′-one]", "values": [{"measurement": "IC50", "setting": "[1]", "result": "< 20", "unit": "nM"}, {"measurement": "IC50", "setting": "MV4-11 cells", "result": "< 50", "unit": "nM"}]}
{"smiles": "CCOc1cc([C@H](C)N2CC3(CCC3)c3c(CN4CC[C@@H](O)C4)cc(Cn4ccnc4NC)cc3C2=O)ncc1F", "note": "[Compound 84, 2′-((S)-1-(4-ethoxy-5-fluoropyridine-2-yl)ethyl)-5′-(((R)-3hydroxylpyrrolidin-1-yl)methyl)-7′-((2-(methylamino)-1H-imidazol-1-yl)methyl)-2′,3′-dihydro-1′H-spiro[cyclobutyl-1,4′-isoquinoline]-1′-one]", "values": [{"measurement": "IC50", "setting": "[1]", "result": "< 20", "unit": "nM"}, {"measurement": "IC50", "setting": "MV4-11 cells", "result": "< 50", "unit": "nM"}]}
{"smiles": "CCOc1cc([C@H](C)N2CC3(CCC3)c3c(CN4CC[C@H](O)C4)cc(Cn4ccnc4NC)cc3C2=O)ncc1F", "note": "[Compound 85, 2′-((S)-1-(4-ethoxy-5-fluoropyridine-2-yl)ethyl)-5′-(((S)-3-hydroxylpyrrolidin-1-yl)methyl)-7′-((2-(methylamino)-1H-imidazol-1-yl)methyl)-2′,3′-dihydro-1′H-spiro[cyclobutan-1,4′-isoquinoline]-1′-one]", "values": [{"measurement": "IC50", "setting": "[1]", "result": "< 20", "unit": "nM"}, {"measurement": "IC50", "setting": "MV4-11 cells", "result": "< 50", "unit": "nM"}]}
